From ChEMBL document CHEMBL3885861, “Open TG-GATES”

Organism: Rattus norvegicus
Experiment: Open TG-GATES - Regimen: Daily Repeat
Type: toxicity, organism-based, Sprague-Dawley
Design: regimen Daily Repeat, gender Male, age 6 weeks
Conditions: in vivo, po, 600 mg/kg, route gavage, dose level High; for APTT / Bas / Eos / Fbg / Hb / Ht / Lym / MCH / MCHC / MCV / Mono / Neu / PT / Plat / RBC / Ret / WBC: tissue Blood; for KIDNEY_L / KIDNEY_R / KIDNEY_TOTAL: tissue Kidney; for LIVER: tissue Liver; for A/G / ALP / ALT / AST / BUN / CRE / Ca / Cl / DBIL / GLC / IP / K / LDH / Na / PL / RALB / TBIL / TC / TG / TP / gamma-GTP: tissue Plasma

## CCOC(=O)[C@H](CCc1ccccc1)N[C@@H](C)C(=O)N1CCC[C@H]1C(=O)O
72 h, time 3 day
  TERMINAL_BW: 244.3 g
  APTT: 16 s
  Bas: 0%
  Eos: 1.4%
  Fbg: 232.8 mg/dL
  Hb: 13 g/dL
  Ht: 38.8%
  Lym: 79.6%
  MCH: 20.9 pg
  MCHC: 33.4%
  MCV: 62.5 fL
  Mono: 6.6%
  Neu: 12.2%
  PT: 11.6 s
  Plat: 116.5 x10_4/uL
  RBC: 620.6 x10_4/ul
  Ret: 4.9%
  WBC: 116.9 x10_2/uL
  KIDNEY_L: 1 g
  KIDNEY_R: 1.1 g
  KIDNEY_TOTAL: 2.1 g
  LIVER: 11.4 g
  A/G: 1.8
  ALP: 892.2 IU/L
  ALT: 33.2 IU/L
  AST: 58.2 IU/L
  BUN: 25.2 mg/dL
  CRE: 0.5 mg/dL
  Ca: 11 mg/dL
  Cl: 104 meq/L
  DBIL: 0.02 mg/dL
  GLC: 193.2 mg/dL
  IP: 8.9 mg/dL
  K: 4.9 meq/L
  LDH: 83.6 IU/L
  Na: 138.8 meq/L
  PL: 154.2 mg/dL
  RALB: 3.8 g/dL
  TBIL: 0.3 mg/dL
  TC: 85.8 mg/dL
  TG: 93.6 mg/dL
  TP: 5.9 g/dL
  gamma-GTP: 1.4 IU/L
[…], time 7 day
  TERMINAL_BW: 266.1 g
  APTT: 15.8 s
  Bas: 0%
  Eos: 1.2%
  Fbg: 228.2 mg/dL
  Hb: 12.5 g/dL
  Ht: 37.8%
  Lym: 78.2%
  MCH: 21.1 pg
  MCHC: 33.2%
  MCV: 63.8 fL
  Mono: 6.4%
  Neu: 14.8%
  PT: 11.7 s
  Plat: 110 x10_4/uL
  RBC: 593.8 x10_4/ul
  Ret: 3.8%
  WBC: 113.9 x10_2/uL
  KIDNEY_L: 1.2 g
  KIDNEY_R: 1.3 g
  KIDNEY_TOTAL: 2.5 g
  LIVER: 12.4 g
  A/G: 1.9
  ALP: 795.8 IU/L
  ALT: 26.8 IU/L
  AST: 59 IU/L
  BUN: 40.4 mg/dL
  CRE: 0.6 mg/dL
  Ca: 10.6 mg/dL
  Cl: 105.2 meq/L
  DBIL: 0.002 mg/dL
  GLC: 199.6 mg/dL
  IP: 8 mg/dL
  K: 5.1 meq/L
  LDH: 97 IU/L
  Na: 137.4 meq/L
  PL: 144 mg/dL
  RALB: 3.7 g/dL
  TBIL: 0.4 mg/dL
  TC: 80.6 mg/dL
  TG: 85.2 mg/dL
  TP: 5.7 g/dL
  gamma-GTP: 1.2 IU/L
[…], time 14 day
  TERMINAL_BW: 298.8 g
  APTT: 16.5 s
  Bas: 0%
  Eos: 1.2%
  Fbg: 232.2 mg/dL
  Hb: 12.6 g/dL
  Ht: 37.8%
  Lym: 80%
  MCH: 20.7 pg
  MCHC: 33.4%
  MCV: 61.9 fL
  Mono: 4.2%
  Neu: 14.4%
  PT: 11.7 s
  Plat: 102.3 x10_4/uL
  RBC: 611.2 x10_4/ul
  Ret: 3.3%
  WBC: 122.6 x10_2/uL
  KIDNEY_L: 1.3 g
  KIDNEY_R: 1.3 g
  KIDNEY_TOTAL: 2.7 g
  LIVER: 13 g
  A/G: 1.8
  ALP: 654.8 IU/L
  ALT: 26.8 IU/L
  AST: 58.6 IU/L
  BUN: 38.2 mg/dL
  CRE: 0.6 mg/dL
  Ca: 10.9 mg/dL
  Cl: 104.4 meq/L
  DBIL: 0.006 mg/dL
  GLC: 191 mg/dL
  IP: 8.9 mg/dL
  K: 4.8 meq/L
  LDH: 90.4 IU/L
  Na: 137 meq/L
  PL: 149 mg/dL
  RALB: 3.9 g/dL
  TBIL: 0.3 mg/dL
  TC: 78.8 mg/dL
  TG: 81.2 mg/dL
  TP: 6.1 g/dL
  gamma-GTP: 1.2 IU/L
[…], time 28 day
  TERMINAL_BW: 358.5 g
  APTT: 16 s
  Bas: 0%
  Eos: 1%
  Fbg: 249.8 mg/dL
  Hb: 13.9 g/dL
  Ht: 41.5%
  Lym: 84.2%
  MCH: 19.4 pg
  MCHC: 33.5%
  MCV: 57.9 fL
  Mono: 4.8%
  Neu: 9.8%
  PT: 11.6 s
  Plat: 114.3 x10_4/uL
  RBC: 717.4 x10_4/ul
  Ret: 5%
  WBC: 148.4 x10_2/uL
  KIDNEY_L: 1.7 g
  KIDNEY_R: 1.7 g
  KIDNEY_TOTAL: 3.4 g
  LIVER: 14.8 g
  A/G: 1.7
  ALP: 553.2 IU/L
  ALT: 23.8 IU/L
  AST: 65.2 IU/L
  BUN: 44 mg/dL
  CRE: 0.7 mg/dL
  Ca: 10.9 mg/dL
  Cl: 105.2 meq/L
  DBIL: 0.062 mg/dL
  GLC: 195.4 mg/dL
  IP: 7.4 mg/dL
  K: 4.9 meq/L
  LDH: 100.2 IU/L
  Na: 137.6 meq/L
  PL: 150.2 mg/dL
  RALB: 3.9 g/dL
  TBIL: 0.3 mg/dL
  TC: 75.4 mg/dL
  TG: 97.8 mg/dL
  TP: 6.1 g/dL
  gamma-GTP: 1.8 IU/L
